Reference: patent US8080659B2, “CXCR4 antagonists including diazine and triazine structures for the treatment of medical disorders” (Emory University, priority 2006, dated 2011)

Assays:
MT-4 cells = settings: cited from earlier work
MDA-MB-231 cells = experiment: matrigel invasion assay, CXCR4/SDF-1-mediated invasion; type: cell-based, human; settings: 2 nM
Method: Lowering CXCR4 mRNA levels by siRNAs inhibited CXCR4/SDF-1-mediated invasion as measured by a matrigel invasion assay. The CXCR4 ligand, SDF-1 (400 ng/ml) was added to the lower chamber to attract CXCR4-positive breast cancer cells to migrate through the matrigel. The invasion of MDA-MB-231 cells transfected with siRNA1 decreased to 39±4% of the control cells, 51±8% with siRNA2, and only 16±6% with both siRNA1+2 (FIG. 3A).
(§1) WZZL811S was tested in a matrigel invasion assay to determine whether it can inhibit CXCR4/SDF-1-mediated invasion.

[1] = test system: human umbilical vein endothelial cells (HUVECs); experiment: endothelial capillary tube formation assay; type: cell-based; settings: 100 nM; SDF-1 100 ng/ml; 18 hours
Method: The anti-angiogenic effect of test compounds was measured by analyzing endothelial cell growth and tube formation. The angiogenic effect of SDF-1 (100 ng/ml) on capillary formation by human umbilical vein endothelial cells (HUVECs) was examined in vitro using Matrigel-coated 24-well plates precoated with Matrigel and incubated for 18 hours. The angiogenic effect of SDF-1 was inhibited by either 100 nM TN14003 (peptide-based CXCR4 antagonist) or WZZL811S treatment (FIG. 14a, graph FIG. 14b).

686LN cells = experiment: Head & Neck cancer metastasis model, 686LN cells i.v., FDG-PET; type: in vivo, mice; settings: 20 mg/mouse/twice weekly, thirty days
Method: The metastatic 686LN cells were injected intravenously through the tail vein to generate experimental animal models for Head & Neck cancer metastasis, modulated via CXCR4. […] These 3-D projection images show lung metastases well (bone mets and liver mets were apparent in axial section images of mice in control groups, data not shown).

CXCR4 [2] = experiment: CXCR4 protein levels after treatment of cells; type: cell-based, human
HIV = settings: MT-4 cells; read-out: concentration required for 50% protection of HIV-induced cytopathogenicity; cited from earlier work
CXCR4 [3] = target: T1, CXCR4 (Homo sapiens, UniProt P61073); experiment: SDF-1-stimulated Akt phosphorylation in MDA-MB-231 cells (western blot); type: cell-based; set-up: endogenous in cells; host or cells: MDA-MB-231; settings: for concentration blocking Akt activation: 100 ng/ml SDF-1, 30 minutes; for block of SDF-1-stimulated phosphorylation of Akt: MDA-MB-231 cells, 100 ng/ml SDF-1, 30 min, dose-dependent
Method: FIG. 2 is an image of a western blot showing phosphorylation of Akt. Incubating MDA-MB-231 cells with 100 ng/ml of SDF-1 for 30 min stimulated phosphorylation of Akt. This activation was blocked with TN14003 or AMD3100 in a dose-dependent manner.
CXCR4/SDF-1 interaction activates PI3K/Akt and Ras/Raf/MEK/Erk pathways in a Gαi protein (PTX-sensitive)-dependent manner. Experiments were conducted to determine the effect of blocking CXCR4/SDF-1 interaction by either TN14003 or AMD3100 at different concentrations (0, 0.01, 0.1, 1, 10, 100, 1000 nM) on phosphorylations of Akt and Erk1/2 signaling. Incubating cells with 100 ng/ml of SDF-1 for 30 minutes activated Akt. […] However, the increase in Erk1/2 phosphorylation by SDF-1 was not significant as the increase in Akt phosphorylation.
as §1

CXCR4 [4] = target: T1, CXCR4; experiment: SDF-1-stimulated Erk1/2 phosphorylation; type: cell-based; set-up: endogenous in cells; host or cells: MDA-MB-231; settings: data not shown
Method: CXCR4/SDF-1 interaction activates PI3K/Akt and Ras/Raf/MEK/Erk pathways in a Gαi protein (PTX-sensitive)-dependent manner. Experiments were conducted to determine the effect of blocking CXCR4/SDF-1 interaction by either TN14003 or AMD3100 at different concentrations (0, 0.01, 0.1, 1, 10, 100, 1000 nM) on phosphorylations of Akt and Erk1/2 signaling.

[5] = test system: hypoxia-responsive element (HRE) of VEGF promoter; experiment: HRE-luciferase reporter of VEGF promoter activity in HRE-Luc MB-231 cells; type: cell-based, human
Source text: To determine whether lowering CXCR4 levels might affect VEGF transcription compared to HIF-1α the hypoxia-reporting luciferase/LacZ plasmid from Dr. Van Meir's laboratory was used as a reporter system to detect hypoxia-responsive element (HRE) of VEGF promoter activity (Post, D. E. and Van Meir, E. G. (2001) Gene Ther 8: 1801-1807). The sequence of HIF-1α siRNA was 5′-UUCAAGUUGGAAUUGGUAGdTdT-3′ (SEQ. ID No. 3). Pooled cell clones were created with MDA-MB-231 cells stably transfected with this plasmid (called HRE-Luc MB-231). Unexpectedly, HRE activity in normoxia was moderately high in MDA-MB-231 cells that have high CXCR4 levels in normoxia (FIG. 6, left), which was not observed in other cell lines with low CXCR4 and HIF-1 levels (LN229, U87, 9L, and MDA-MB-435). This moderately high HRE activity in MDA-MB-231 cells was suppressed by CXCR4 siRNA or HIF-1α siRNA. […] As expected, the HRE activity increased 2.5-fold by hypoxia treatment (1% oxygen and 5% CO2 in nitrogen). This elevated HRE activity was again suppressed by siRNA for CXCR4 or HIF-1α (FIG. 6, right).

CXCR4 [6] = target: T1, CXCR4; experiment: competition assay using biotin-labeled TN14003 on tumor cells; type: binding; set-up: endogenous in cells; probably MDA-MB-231
Source text: In a separate embodiment, a process for screening potential drug candidates is provided. The process includes providing a labeled peptide-based CXCR4 antagonist that has a detectable signal when bound to a CXCR4 receptor; contacting a CXCR4 receptor with at least one test molecule at a known concentration to form a test sample; contacting the test sample with the peptide-based antagonist; separately, contacting the peptide-based antagonist to a sample not including any test molecule to form a control sample; and comparing the signal from the test sample to the signal from the control sample. In a specific sub-embodiment, the peptide-based antagonist is derived from TN14003 (described in PCT Publication No. WO 04/087068 to Emory University). In a further subembodiment, the antagonist is labeled with a biotin molecule and the signal is elicited when the biotin-labeled antagonist is contacted with a streptavadin-conjugated signal molecule.
The signal elicited by binding of the CXCR4 antagonist and the receptor can be a fluorescent signal. […]
The peptide-based antagonist is typically a molecule with high affinity for the receptor. […] In this embodiment, the test compound is incubated with the receptor at varying concentrations and the signal elicited after binding of the labeled antagonist is measured and compared to control, as well as to each other. […]

[7] = clinical trials; cited from earlier work

T1 sequence (P61073 whole entry): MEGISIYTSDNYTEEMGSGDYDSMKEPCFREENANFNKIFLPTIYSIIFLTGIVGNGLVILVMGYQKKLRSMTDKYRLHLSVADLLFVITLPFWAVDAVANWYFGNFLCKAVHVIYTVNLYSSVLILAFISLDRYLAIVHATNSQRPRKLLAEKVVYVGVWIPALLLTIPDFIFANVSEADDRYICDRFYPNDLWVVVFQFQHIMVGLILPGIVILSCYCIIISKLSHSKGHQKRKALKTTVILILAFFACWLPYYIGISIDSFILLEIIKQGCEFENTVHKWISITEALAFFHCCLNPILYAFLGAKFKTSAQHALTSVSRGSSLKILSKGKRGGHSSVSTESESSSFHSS

| Molecule | concentration leading to 50% toxicity (MT-4 cells) [µM] | block of CXCR4/SDF-1 mediated invasion (MDA-MB-231 cells) | angiogenic effect of SDF-1 on capillary tube formation [1] | metastasis to organs (686LN cells) | effect on CXCR4 protein levels (CXCR4 [2]) | EC50 (HIV) [nM] | concentration blocking Akt activation (CXCR4 [3]) | block of SDF-1-stimulated phosphorylation of Akt (CXCR4 [3]) | concentration attenuating Erk1/2 phosphorylation (CXCR4 [4]) | HRE activity ([5]; hypoxia (1% oxygen)) | HRE activity ([5]; normoxia) | concentration needed to compete against biotin-labeled TN14003 (CXCR4 [6]) [µM] | side effect in clinical study [7] |
| --- | --- | --- | --- | --- | --- | --- | --- | --- | --- | --- | --- | --- | --- |
| TN14003 | 410 | blocked | inhibited | failed to metastasize to any organs | did not affect | 0.6 | sub-nano molar | blocked | sub-nano molar |  |  |  |  |
| HIF-1α siRNA: HIF-1α siRNA, 5′-UUCAAGUUGGAAUUGGUAGdTdT-3′ (SEQ. ID No. 3) (guide UUCAAGUUGGAAUUGGUAGNN; further chemistry not given here) |  |  |  |  |  |  |  |  |  | suppressed | suppressed |  |  |
| C1=CC(CN2CCCNCCNCCCNCC2)CC=C1CN1CCCNCCNCCCNCC1 (centres unmarked) [AMD3100] |  |  |  |  | did not affect |  | a few nano molar | blocked | 100 nM |  |  | 10 | cardiac-related side effect |
